The record followed here is patent US4171299A, “Polypeptide agents for blocking the human allergic response” (The Regents of the University of California, priority 1976, dated 1979).

Common to all, as to type: in vivo
Data set [1] deals with T1, binding sites on mast cells (Homo sapiens, UniProt P12319).
T1 construct: endogenous in cells; host or cells: skin mast cells of living human volunteers (intradermal injection sites on back or forearm)
T1 sequence (P12319 26-257): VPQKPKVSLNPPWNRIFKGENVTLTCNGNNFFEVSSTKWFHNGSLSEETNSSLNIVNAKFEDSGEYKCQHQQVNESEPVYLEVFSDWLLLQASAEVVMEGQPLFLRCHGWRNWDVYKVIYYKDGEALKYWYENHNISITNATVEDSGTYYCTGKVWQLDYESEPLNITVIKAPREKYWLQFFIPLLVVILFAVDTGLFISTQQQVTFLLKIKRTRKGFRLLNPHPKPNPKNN
T1 sequence (Q01362 1-244 partner): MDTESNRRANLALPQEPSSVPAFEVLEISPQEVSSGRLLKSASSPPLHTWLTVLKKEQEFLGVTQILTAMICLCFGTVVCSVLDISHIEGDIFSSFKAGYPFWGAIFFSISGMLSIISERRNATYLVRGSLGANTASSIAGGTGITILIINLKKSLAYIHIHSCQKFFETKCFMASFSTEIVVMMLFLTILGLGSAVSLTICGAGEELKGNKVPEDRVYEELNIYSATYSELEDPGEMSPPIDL
T1 sequence (P30273 19-86 partner): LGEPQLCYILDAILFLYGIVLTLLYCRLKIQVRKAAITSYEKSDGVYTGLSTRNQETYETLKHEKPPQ
The data set is described as follows: Prausnitz-Kustner (P-K) reaction blocking activity assay in human volunteers. As to conditions: for inhibition, individual high: highest individual of six; for inhibition, individual high / inhibition, individual low: same conditions as the average; for inhibition, individual low: lowest individual of six; for average % inhibition (P-K wheal): six individuals, peptide approx. 6 μg/ml, 0.1 ml intradermally per site, 0.05 ml diluted P-K serum containing 0.2 ng IgE, guinea pig antigen prick-puncture, versus control wheal. On the procedure:
The "blocking" activity of the polypeptides of the invention can be assayed by utilization of the classic Prausnitz-Kustner (P-K) reaction. In this classic method, a known allergic serum i.e., one that contains IgE specific for a known antigen or allergen is injected intradermally into a human volunteer. After waiting a period of time, e.g. 20 or more hours, the injected sites are then challenged with a prick or injection of a solution of an antigen that is specific for the IgE in the injected serum. Within the next 10 to 30 minutes a positive reaction is evidenced by the development of a wheal (and flare) at the injected site. The more extensive the diameter of the wheal the more intensive is the allergic reaction. That is, a more extensive wheal indicates a greater release of histamine into the tissues at the injected site. Conversely, the development of wheals of lesser diameter or the absence of any wheal at all indicates diminished allergic reaction and/or no allergic reaction at all. The P-K reaction as noted above is a classic test and is universally known and utilized by allergists.
As noted above, the classic P-K reaction is utilized to assay the "blocking" abilities of the polypeptides utilized in the present invention.
The following describes assays of a number of polypeptides useful in the present invention, the synthesis of which was described hereinabove.
All of these assays were performed using a single proven safe P-K donor serum that contains IgE specific for guinea pig allergens.
Peptide solutions were either injected intradermally 1 to 24 hours prior to the P-K serum, or mixed with dilutions of the P-K serum for simultaneous injection. Initial tests were performed using the P-K serum at from 1:4 to 1:200 dilutions. Further studies were run at a fixed P-K dilution of 1:32 while the invention peptide solutions were varied to contain from about 1 mM to […] of the peptide being tested. Injected sites on the volunteers were challenged by prick-puncture of guinea pig BCA 1:40 w/v (purchased from Berkeley Biologicals, Inc.).
Human volunteers were chosen who had serum IgE levels below 100 U/ml (242 ng/ml) which levels have been previously shown to assure successful P-K reactivity. […] P-K and skin tests were performed on the back and/or forearm. Multiple test sites of approximately 25 mm diameter were circled with a marking pen and all injections were made within the circled skin areas.
A typical sequence of events was intradermal injection of 0.1 ml of the peptide solution or control buffered saline diluent solution; followed in 1 to 24 hours by intradermal injection of 0.05 ml. of P-K serum into each of the previously injected sites. After 20 to 24 hours had elapsed, each site was prick-punctured with the antigen solution, blotted dry in 5 minutes and measurements of the wheal and flare in both their narrowest and widest diameter were made three times, usually 15, 20 and 25 minutes after prick-punctures.
Blocking activity assays were undertaken with the following polypeptides: Asp-Pro-Arg; Ser-Asp-Pro-Arg; Asp-Ser-Asp-Pro-Arg; and Ala-Asp-Ser-Asp-Pro-Arg. For comparison testing, Asp-Thr-Glu-Ala-Arg and tosyl-L-arginine sarcosine methylester (TASME), were also synthesized and tested.
The above-noted polypeptides were assayed as noted above on six different individuals. Results were as follows:
The results, as noted above, present the average of measurements at three time intervals, in duplicate, for each reaction in each individual, subtracted from the average control wheal measurements, and divided by the average measurement of each individual's control wheal. Control wheals in different individuals varied from 8 to 40 mm^2 with a mean of 17 mm^2. Each peptide was utilized at approximately 6 μg/ml dilution and 0.1 ml. was injected at each site, followed by 0.05 ml. of diluted P-K serum containing 0.2 ng. of IgE. […]

The target in data set [2] is T2, IgE already bound to mast cell sites (Homo sapiens, UniProt P12319).
T2 construct: endogenous in cells; host or cells: skin mast cells of one naturally guinea-pig-sensitive person, carrying own IgE
T2 sequence (P12319 26-257): T1 sequence (P12319 26-257)
T2 sequence (Q01362 1-244 partner): T1 sequence (Q01362 1-244 partner)
T2 sequence (P30273 19-86 partner): T1 sequence (P30273 19-86 partner)
Briefly: Displacement test: direct guinea pig antigen skin challenge in a naturally sensitive individual. As to conditions: single sensitive individual; for wheal smaller than at buffered saline diluent site: challenge twenty-four hours after intradermal injection of approx. 2 nM. On the procedure: It has also been determined that the active polypeptides of the invention appear to have the ability to "displace" IgE from mast cell sites as well as to prevent the binding of IgE to these sites. In a single test, an individual known to have extreme sensitivity to guinea pig antigens, that is a person with a high natural concentration of guinea-pig-antigen-sensitive IgE, was injected with polypeptides in accordance with the invention, and […] reaction to guinea pig antigen was noted.
Specifically, approximately 2 nM each of Asp-Ser-Asp-Pro-Arg and Ala-Asp-Ser-Asp-Pro-Arg were each intradermally injected into 3 marked sites. For comparison, TASME, as well as a control of the buffer diluent alone, was also each injected into 3 marked sites. At one, five and twenty-four hours subsequent to the polypeptide and control injection, one of each peptide and one diluent site were prick-puncture challenged with guinea pig antigen. […] However, at the twenty-four hour challenge, the wheal at the Asp-Ser-Asp-Pro-Arg site was approximately 45% smaller; while at the Ala-Asp-Ser-Asp-Pro-Arg site, the wheal was approximately 23% smaller.

The test system of a further data set is DBA white mice. The data set is described as follows: Acute toxicity in DBA white mice. Particulars: 24 to 72 hours post-injection; for post-mortem gross and microscopic examination of tissues and organs: 1.4 ml i.d./s.c./i.v./i.p. On the procedure: Acute toxicity was determined as follows:
DBA white mice (average weight 15 g.) were each injected with 1.4 ml. of a solution of the peptide in phosphate buffered saline, pH 7.4, as follows:
0.1 ml.×3 --subcutaneously
0.6 ml.--intraperitoneally
The peptides and concentrations used were as follows:
Ala-Asp-Ser-Asp-Pro-Arg (Example 4)--5 μg/ml--(375 mg/kg)--6 mice
Asp-Ser-Asp-Pro-Arg (Example 3)--10 μg/ml--(1 mg/kg)--8 mice
Asp-Ser-Asp-Pro-Arg (Example 3)--13 μg/ml--(1.3 mg/kg)--8 mice

Peptide text beside a SMILES is read from it.

As for `N=C(N)NCCC[C@H](NC(=O)[C@@H]1CCCN1C(=O)[C@H](CC(=O)O)NC(=O)[C@@H](N)CO)C(=O)O` [Ser-Asp-Pro-Arg] (H-SDPR-OH), in data set [1], the “inhibition, individual high” value was 50%; the “inhibition, individual low” value was determined as 0%; the “average % inhibition (P-K wheal)” value is on record as 18%.

Take “tosyl-L-arginine sarcosine methylester [TASME, reference compound]”: the “inhibition of the wheal and flare reaction” value in data set [2] (challenge one and five hours after intradermal injection of approx. 2 nM) is “No inhibition”. Besides, the “wheal smaller than at buffered saline diluent site” value (shortened to “wheal smaller than”) in data set [2] was “No reduction in the size of the wheal”. In data set [1], the “inhibition, individual high” value is reported as 40%; the “inhibition, individual low” value came out at 0%; the “average % inhibition (P-K wheal)” value is given as 24%.

`N=C(N)NCCC[C@H](NC(=O)[C@@H]1CCCN1C(=O)[C@@H](N)CC(=O)O)C(=O)O` [Asp-Pro-Arg] (H-Asp-Pro-Arg-OH): in data set [1], the “inhibition, individual high” value was 38%; the “inhibition, individual low” value is 0%; the “average % inhibition (P-K wheal)” value is 15%.

In the case of `C[C@H](NC(=O)[C@H](CCC(=O)O)NC(=O)[C@@H](NC(=O)[C@@H](N)CC(=O)O)[C@@H](C)O)C(=O)N[C@@H](CCCNC(=N)N)C(=O)O` [Asp-Thr-Glu-Ala-Arg, reference compound] (H-DTEAR-OH), in data set [1], the “inhibition, individual high” value is listed as 80%; the “inhibition, individual low” value turned out to be 30%; the “average % inhibition (P-K wheal)” value turned out to be 58%.

`N=C(N)NCCC[C@H](NC(=O)[C@@H]1CCCN1C(=O)[C@H](CC(=O)O)NC(=O)[C@H](CO)NC(=O)[C@@H](N)CC(=O)O)C(=O)O` [Asp-Ser-Asp-Pro-Arg] (H-DSDPR-OH): the “wheal smaller than” value in data set [2] was “approximately 45%”. For the same molecule, in the data set on DBA white mice (10 μg/ml (1 mg/kg), 8 mice), the “post-mortem gross and microscopic examination of tissues and organs” value is reported as “no local or systemic toxicological abnormalities”; the survival of mice result is reported as “all still living”. Also, in the data set with DBA white mice (13 μg/ml (1.3 mg/kg), 8 mice), the “post-mortem gross and microscopic examination of tissues and organs” value is on record as “no local or systemic toxicological abnormalities”; the survival of mice entry is recorded as “all still living”. Further, in data set [1], the “inhibition, individual high” value is on record as 89%; the “inhibition, individual low” value amounted to 60%; the “average % inhibition (P-K wheal)” value was 72%.

`C[C@H](N)C(=O)N[C@@H](CC(=O)O)C(=O)N[C@@H](CO)C(=O)N[C@@H](CC(=O)O)C(=O)N1CCC[C@H]1C(=O)N[C@@H](CCCNC(=N)N)C(=O)O` [Ala-Asp-Ser-Asp-Pro-Arg] (H-ADSDPR-OH): the “wheal smaller than” value in data set [2] is “approximately 23%”. In the data set on DBA white mice (5 μg/ml (375 mg/kg), 6 mice), the “post-mortem gross and microscopic examination of tissues and organs” value was “no local or systemic toxicological abnormalities”; the survival of mice entry was “all still living”. Further, in data set [1], the “inhibition, individual high” value is on record as 61%; the “inhibition, individual low” value is reported as 10%; the “average % inhibition (P-K wheal)” value was found to be 46%.
